Patent US9133180B2, “Aurora and FLT3 kinases modulators” (SAREUM LIMITED, priority 2012, dated 2015)

How the values were obtained:
[1] = tested on: SW620, HCT-116, Colo205, A549, Calu-6 or HL-60 tumour xenografts; conditions: HL-60 xenograft; cited from earlier work
Aurora A kinase = Aurora A kinase (Homo sapiens (Human), UniProt O14965); assay: Aurora A kinase 33P-ATP filter assay (Reaction Biology Corp.); type: biochemical
Experimental: (§1) The ability of the compounds of the invention to inhibit FLT3 kinase and Aurora A and Aurora B kinases was determined using the assays described below.
(§2) Kinase assays were performed at Reaction Biology Corp., Malvern, Pa., USA, using the following general procedure:
(§3) 1) Prepare indicated substrate in freshly prepared Base Reaction Buffer (20 mM Hepes pH 7.5, 10 mM MgCl2, 1 mM EGTA, 0.02% Brij35, 0.02 mg/ml BSA, 0.1 mM Na3VO4, 2 mM DTT, 1% DMSO).
(§4) 2) Deliver cofactors (1.5 mM CaCl2, 16 ug/mL Calmodulin, 2 mM MnCl2) to the substrate solution above.
(§5) 3) Deliver indicated kinase into the substrate solution and gently mix
(§6) 4) Deliver varying concentrations of test compound in DMSO into the kinase reaction mixture.
(§7) 5) Deliver ^33P-ATP (specific activity 0.01 µCi/µL final) into the reaction mixture to initiate the reaction.
(§8) 6) Incubate kinase reaction for 120 min at room temperature.
(§9) 7) Reactions are spotted onto P81 ion exchange filter paper (Whatman #3698-915)
(§10) 8) Unbound phosphate is removed by washing filters extensively in 0.75% phosphoric acid.
(§11) 9) ^33P signal was determined using Typhoon phosphorimagers (GE Healthcare).
(§12) Substrates: Kemptide=[H-LRRASLG] Abltide=[[…]]

Aurora B kinase = Aurora B kinase (Homo sapiens (Human), UniProt Q96GD4); assay: Aurora B kinase 33P-ATP filter assay (Reaction Biology Corp.); type: biochemical
Experimental: as §1, §2, §3, §4, §5, §6, §7, §8, §9, §10, §11, §12

FLT3 kinase = FLT3 kinase (Homo sapiens (Human), UniProt P36888); assay: FLT3 kinase 33P-ATP filter assay (Reaction Biology Corp.); type: biochemical
Experimental: as §1, §2, §3, §4, §5, §6, §7, §8, §9, §10, §11, §12

HCT-116 [2] = assay: Anti-proliferative activity, Alamar Blue assay; type: cell-based; conditions: Homo sapiens, 96 h exposure, read-out: HCT116 96 Hrs IC50
Experimental: (§13) The anti-proliferative activities of compounds of the invention are determined by measuring the ability of the compounds to inhibit the growth of the colorectal cancer derived cell-line HCT-116. Inhibition of cell growth is measured using the Alamar Blue assay (Nociari et al., Journal of Immunological Methods (1998) 213, 157-167). The method is based on the ability of viable cells to reduce resazurin to its fluorescent product resorufin. For each proliferation assay cells are plated onto 96 well plates and allowed to recover for 16 hours prior to the addition of inhibitor compounds for a further 96 hours. At the end of the incubation period 10% (v/v) Alamar Blue is added and incubated for a further 6 hours prior to determination of fluorescent product at Excitation 535 nm and Emission 590 nm. All cell lines are obtained from ECACC (European Collection of cell Cultures).
(§14) The activities of the compounds of the invention against the human colorectal cancer cell line HCT-116 are shown the in the table below. The column headed HCT-116 96 Hrs refers to the concentration of compound required to reduce the proliferation of HCT-116 cells by 50% following a 96 h period of exposure. The column headed [Polyploidy] refers to the lowest concentration of compound required to produce a distinct polyploid phenotype, believed to be due to Aurora B inhibition.

HCT-116 [3] = assay: Polyploid phenotype in HCT-116 cells; type: cell-based, human
Experimental: as §13, §14

[4] = Caco-2 permeability assay; type: in vitro ADME; conditions: human; for Papp A→B: A2B, read-out: Caco2 A2B Papp; for Papp B→A: B2A, read-out: Caco2 B2A Papp; for efflux ratio: B2A:A2B, read-out: Caco2 Efflux ratio
Experimental: The ability of a compound to be taken up and retained by a cell can be measured by carrying out permeability studies using Caco-2 cells.
Compounds of the present invention were therefore tested in a standard Caco-2 assay and the rate of flow of the compounds into and out of the cells was determined.
In the table, the column headed “Caco-2 A2B” indicates the rate at which compound flows into the cells and the column Caco-2 B2A indicates the rate at which compound flows out of the cells. The “Efflux Ratio” is the ratio of Caco-2 B2A:Caco-2 A2B.

[5] = tested on: treatment-refractory primary Acute Myelogenous Leukemia (AML) cells; conditions: cells from patients; cited from earlier work
MV4-11 xenograft tumors = assay: MV4-11 xenograft study in nude mice; type: in vivo, Balb/c nude mouse; conditions: 100 mg/kg IP once daily, 4 cycles
Excerpt: The in vivo antitumour activity of compounds of the invention was investigated by examining the effect of the compounds of Examples 2 and 7 on tumour growth in a nude mouse xenograft model of the MV4-11 cancer cell line.
MV4-11 cell line (ATCC, USA); RPMI 1640 medium (Invitrogen, USA); FBS (Invitrogen, Australia); Balb/c nude mouse (Slac Laboratory Animal Co., Ltd., Shanghai, China): female, 18-22 g; HP-6-CD (Sigma, USA).
A total of 52 female nude mice were used. The mice were allowed 3 days of acclimatization period before starting the experiment. Mice were implanted subcutaneously (s.c.) with 200 μl of 1×10^7MV4-11 tumour cells in 50% Matrigel in the right flank at the beginning of the study. When tumours reached an average volume of 100-150 mm^3, 32 mice out of the 52 were selected based on tumour volume, and randomly assigned to 4 groups prior to dosing. Each treatment group consisted of 8 tumour-bearing animals (n=8/group).
A comparison group of mice were treated with cytarabine once daily for 5 days on, 2 days off, for 4 cycles.
Mice were weighed at each dosing and the tumour sizes recorded twice each week. Mice were observed closely for any overt signs of adverse, treatment-related side effects and these were recorded if and when they were observed.
The tumour size was measured twice weekly in two dimensions using calipers, and the volume was expressed in mm^3 using the formula: V=0.5 a×b^2 where a and b were the long and short diameters of the tumour, respectively.
Mice were euthanized by CO2 exposure after 4-cycle dose. The tumour volume, weight of dissected tumours, and the mouse body weight were measured and recorded. The tumour inhibitory rate (IR) was calculated by the formula IR=(WV−WT)/WV×100%.
The differences in tumour size between the groups were analyzed for significance using the unpaired two-tailed Student's t-test. P<0.05 was considered to be statistically significant.

FLT3 kinase, sequence (P36888 27-993): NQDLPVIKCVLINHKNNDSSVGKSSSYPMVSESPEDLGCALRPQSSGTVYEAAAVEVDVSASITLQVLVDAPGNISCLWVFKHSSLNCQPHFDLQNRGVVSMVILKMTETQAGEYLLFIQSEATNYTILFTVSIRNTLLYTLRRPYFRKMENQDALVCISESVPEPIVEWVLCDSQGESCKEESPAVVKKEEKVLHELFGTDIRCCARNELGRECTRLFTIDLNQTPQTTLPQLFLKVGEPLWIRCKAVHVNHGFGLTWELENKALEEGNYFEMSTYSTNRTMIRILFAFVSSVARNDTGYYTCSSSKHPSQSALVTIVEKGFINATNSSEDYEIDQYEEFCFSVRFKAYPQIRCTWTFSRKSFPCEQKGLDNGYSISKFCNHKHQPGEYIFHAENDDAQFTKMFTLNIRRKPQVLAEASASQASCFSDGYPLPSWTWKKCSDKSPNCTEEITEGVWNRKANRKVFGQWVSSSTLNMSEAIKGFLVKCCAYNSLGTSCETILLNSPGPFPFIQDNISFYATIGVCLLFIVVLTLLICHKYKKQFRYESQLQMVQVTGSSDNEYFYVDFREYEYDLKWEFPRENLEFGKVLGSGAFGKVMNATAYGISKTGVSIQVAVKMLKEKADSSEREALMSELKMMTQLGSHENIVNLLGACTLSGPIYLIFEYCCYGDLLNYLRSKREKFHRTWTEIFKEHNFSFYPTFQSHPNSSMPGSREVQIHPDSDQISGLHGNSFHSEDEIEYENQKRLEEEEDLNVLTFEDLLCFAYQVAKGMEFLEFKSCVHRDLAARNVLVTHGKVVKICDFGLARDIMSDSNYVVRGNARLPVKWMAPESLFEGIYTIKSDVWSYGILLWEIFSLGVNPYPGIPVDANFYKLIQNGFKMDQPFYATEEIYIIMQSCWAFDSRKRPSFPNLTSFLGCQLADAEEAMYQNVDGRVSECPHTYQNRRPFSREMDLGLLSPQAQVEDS
Aurora B kinase, sequence (Q96GD4 whole entry): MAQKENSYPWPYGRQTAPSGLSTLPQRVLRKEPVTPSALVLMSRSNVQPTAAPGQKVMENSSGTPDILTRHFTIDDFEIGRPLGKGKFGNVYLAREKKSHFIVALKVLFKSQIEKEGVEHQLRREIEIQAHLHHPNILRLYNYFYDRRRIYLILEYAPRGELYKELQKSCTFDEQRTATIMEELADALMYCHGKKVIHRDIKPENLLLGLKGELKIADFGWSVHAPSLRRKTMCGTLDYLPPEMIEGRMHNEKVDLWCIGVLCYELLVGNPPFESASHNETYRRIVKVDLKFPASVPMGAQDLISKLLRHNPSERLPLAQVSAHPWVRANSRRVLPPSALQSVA
Aurora A kinase, sequence (O14965 whole entry): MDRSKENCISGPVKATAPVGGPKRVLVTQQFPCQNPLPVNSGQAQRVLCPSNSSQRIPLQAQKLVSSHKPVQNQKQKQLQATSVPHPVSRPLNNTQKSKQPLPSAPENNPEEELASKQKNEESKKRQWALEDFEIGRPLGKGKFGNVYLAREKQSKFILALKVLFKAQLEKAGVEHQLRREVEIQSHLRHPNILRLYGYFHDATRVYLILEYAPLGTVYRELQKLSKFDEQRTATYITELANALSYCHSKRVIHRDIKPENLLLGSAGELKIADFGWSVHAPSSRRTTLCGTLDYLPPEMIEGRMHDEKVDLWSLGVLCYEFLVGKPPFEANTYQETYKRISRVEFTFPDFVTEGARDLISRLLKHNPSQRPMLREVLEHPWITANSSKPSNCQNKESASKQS

| SMILES | complete tumour regression (animals) [1] | IC50 (Aurora A kinase) | IC50 (Aurora B kinase) | IC50 (FLT3 kinase) | IC50 (HCT-116 [2]) | [Polyploidy] lowest concentration producing a distinct polyploid phenotype (HCT-116 [3]) | Papp A→B [4] | Papp B→A [4] | efflux ratio [4] | killing of primary AML cells [5] | effect on tumour growth (tumour volume) (MV4-11 xenograft tumors) | tumour inhibitory rate (IR) (MV4-11 xenograft tumors; 5 days on, 2 days off) |
| --- | --- | --- | --- | --- | --- | --- | --- | --- | --- | --- | --- | --- |
| CCN(CCCOc1ccc2c(Nc3cc(CC(=O)Nc4cccc(F)c4)n[nH]3)ncnc2c1)CCOP(=O)(O)O [AZD1152] | 8 of 11 | – | – | – | – | – | – | – | – | – | – | – |
| CC1(C)CN(c2ccc(-c3oc(-c4c(F)ccc5[nH]ccc45)nc3C(N)=O)cc2)CCN1 [Example 1, 2-(5-Fluoro-1H-Indol-4-yl)-5-[4-(3,3-dimethyl-piperazin-1-yl)-phenyl]-oxazole-4-carboxylic acid amide] | – | 14.6 nM | 24.3 nM | 1.92 nM | 240 nM | 0.3 µM | 0.707 ×10⁻⁶ cm/s | 22.8 ×10⁻⁶ cm/s | 32.2 | – | – | – |
| CC1(C)CN(c2ccc(-c3oc(-c4ccc(F)c5[nH]ccc45)nc3C(N)=O)cc2)CCN1 [Example 3, 2-(7-Fluoro-1H-Indol-4-yl)-5-[4-(3,3-dimethyl-piperazin-1-yl)-phenyl]-oxazole-4-carboxylic acid amide] | – | 19.4 nM | 9.36 nM | 0.821 nM | 120 nM | 0.1 µM | 1.17 ×10⁻⁶ cm/s | 7.76 ×10⁻⁶ cm/s | 6.62 | – | – | – |
| CC1(C)CN(c2ccc(-c3oc(-c4ccc(Cl)c5[nH]ccc45)nc3C(N)=O)cc2)CCN1 [Example 4, 2-(7-Chloro-1H-Indol-4-yl)-5-[4-(3,3-dimethyl-piperazin-1-yl)-phenyl]-oxazole-4-carboxylic acid amide] | – | 34 nM | 13.9 nM | 0.97 nM | 260 nM | 0.3 µM | 0.64 ×10⁻⁶ cm/s | 2.76 ×10⁻⁶ cm/s | 4.32 | – | – | – |
| COc1ccc(-c2nc(C(N)=O)c(-c3ccc(N4CCNC(C)(C)C4)cc3)o2)c2cc[nH]c12 [Example 5, 2-(7-Methoxy-1H-Indol-4-yl)-5-[4-(3,3-dimethyl-piperazin-1-yl)-phenyl]-oxazole-4-carboxylic acid amide] | – | 20.5 nM | 8.78 nM | 0.89 nM | 87 nM | 0.1 µM | 1.36 ×10⁻⁶ cm/s | 11 ×10⁻⁶ cm/s | – | – | – | – |
| Cc1cc(C)c2[nH]ccc2c1-c1nc(C(N)=O)c(-c2ccc(N3CCNC(C)(C)C3)cc2)o1 [Example 6, 2-(5,7-Dimethyl-1H-Indol-4-yl)-5-[4-(3,3-dimethyl-piperazin-1-yl)-phenyl]-oxazole-4-carboxylic acid amide] | – | 88.4 nM | 19.6 nM | 1.37 nM | 160 nM | 0.1 µM | 0.514 ×10⁻⁶ cm/s | 2.08 ×10⁻⁶ cm/s | 4.04 | – | – | – |
| Cc1c[nH]c2cccc(-c3nc(C(N)=O)c(-c4ccc(N5CCNC(C)(C)C5)cc4)o3)c12 [Example 8, 2-(3-Methyl-1H-Indol-4-yl)-5-[4-(3,3-dimethyl-piperazin-1-yl)-phenyl]-oxazole-4-carboxylic acid amide] | – | 271 nM | 14.2 nM | 0.55 nM | – | – | 2.07 ×10⁻⁶ cm/s | 9.19 ×10⁻⁶ cm/s | 4.45 | – | – | – |
| CCc1ccc2[nH]ccc2c1-c1nc(C(N)=O)c(-c2ccc(N3CCNC(C)(C)C3)cc2)o1 [Example 9, 2-(5-Ethyl-1H-Indol-4-yl)-5-[4-(3,3-dimethyl-piperazin-1-yl)-phenyl]-oxazole-4-carboxylic acid amide] | – | – | – | – | – | – | 0.519 ×10⁻⁶ cm/s | 3.59 ×10⁻⁶ cm/s | 6.91 | – | – | – |
| CCc1ccc(-c2nc(C(N)=O)c(-c3ccc(N4CCNC(C)(C)C4)cc3)o2)c2cc[nH]c12 [Example 10, 2-(7-Ethyl-1H-Indol-4-yl)-5-[4-(3,3-dimethyl-piperazin-1-yl)-phenyl]-oxazole-4-carboxylic acid amide] | – | – | – | – | 220 nM | 0.3 µM | 0.37 ×10⁻⁶ cm/s | 2.35 ×10⁻⁶ cm/s | – | – | – | – |
| CC1(C)CN(c2ccc(-c3oc(-c4cccc5[nH]ccc45)nc3C(N)=O)cc2)CCN1 [Example 11, 2-(1H-Indol-4-yl)-5-[4-(3,3-dimethyl-piperazin-1-yl)-phenyl]-oxazole-4-carboxylic acid amide] | – | 46.2 nM | 15.2 nM | – | 170 nM | 0.1 µM | 2.47 ×10⁻⁶ cm/s | 12.6 ×10⁻⁶ cm/s | – | – | – | – |
| CC1(C)CN(c2ccc(-c3oc(-c4ccc(C(F)(F)F)c5[nH]ccc45)nc3C(N)=O)cc2)CCN1 [Example 12, 2-(7-Trifluoromethyl-1H-Indol-4-yl)-5-[4-(3,3-dimethyl-piperazin-1-yl)-phenyl]-oxazole-4-carboxylic acid amide] | – | 16 nM | 14 nM | 2.8 nM | – | – | 0.036 ×10⁻⁶ cm/s | 1.21 ×10⁻⁶ cm/s | 33.5 | – | – | – |
| NC(=O)c1nc(-c2cccc3[nH]ccc23)oc1-c1ccc(N2CCNCC2)cc1 [Example M-12, 2-(1H-Indol-4-yl)-5-(4-piperazin-1-yl-phenyl)-oxazole-4-carboxylic acid amide, reference compound] | – | 75 nM | 13 nM | 1.6 nM | 680 nM | 1.0 µM | 1.13 ×10⁻⁶ cm/s | 58.3 ×10⁻⁶ cm/s | 51.7 | – | – | – |
| Cc1cc(Nc2cc(N3CCN(C)CC3)nc(Sc3ccc(NC(=O)C4CC4)cc3)n2)n[nH]1 [VX-680] | – | – | – | – | – | – | – | – | – | potently killed | – | – |
| Nc1ccn([C@@H]2O[C@H](CO)[C@@H](O)[C@@H]2O)c(=O)n1 [cytarabine, reference compound] | – | – | – | – | – | – | – | – | – | – | slowed down but did not completely block the tumour growth | 66.72% |
